Data as given in patent US20220133641A1, “TOPICAL FILM-FORMING SPRAY” (GRACE THERAPEUTICS INC., priority 2015, published 2022).
Counter-ions that a name gives are not always drawn.

Columns and labels:
[1] = In-vivo study in healthy rats, drug plasma concentration after 4 sprays; conditions: rat, topical
Experimental: A total of 4 sprays were applied (two sprays on the back and two sprays on the abdominal area of the animal) using a metered dose mechanical spray pump. Blood samples were collected at 15, 30 minutes, 1, 2, 4, 8 and 24 hours. All samples were analyzed using a validated analytical LC-MS method.

[2] = Solubility study for drug saturation in spray vehicle (Example 45); format: physicochemical
Experimental: Solubility studies to find out concentration at which the drug is present at saturation levels were performed as follows: The drug (bupivacaine hydrochloride 2, 4, 8, 10,12 & 16 mg) was added to, propylene glycol, oleyl alcohol and menthol in ethanol under stirring and mixing till clear solution is formed. The film-forming polymer in the clear drug solution was added while stirring till polymer dissolves or hydrates completely.

**Q.** For CCCCN1CCCCC1C(=O)Nc1c(C)cccc1C (stereo not shown) [Bupivacaine HCl], which concentration at 0 h ([1]; 8 mg strength) is on record?
**A.** 1 ng/mL

**Q.** What about the concentration at 0.25 h ([1]; 8 mg strength) of the same compound?
**A.** 82 ng/mL

**Q.** What about the concentration at 0.5 h ([1]; 8 mg strength) of the same compound?
**A.** 119 ng/mL

**Q.** What about the concentration at 1 h ([1]; 8 mg strength) of the same compound?
**A.** 148 ng/mL

**Q.** What about the concentration at 2 h ([1]; 8 mg strength) of the same compound?
**A.** 95 ng/mL

**Q.** And the concentration at 4 h ([1]; 8 mg strength)?
**A.** 221 ng/mL

**Q.** What about the concentration at 8 h ([1]; 8 mg strength) of the same compound?
**A.** 147 ng/mL

**Q.** And the concentration at 24 h ([1]; 8 mg strength)?
**A.** 55 ng/mL

**Q.** And the concentration at 0 h ([1]; 12 mg strength)?
**A.** 0 ng/mL

**Q.** What about the concentration at 0.25 h ([1]; 12 mg strength) of the same compound?
**A.** 73 ng/mL

**Q.** And the concentration at 0.5 h ([1]; 12 mg strength)?
**A.** 109 ng/mL

**Q.** What about the concentration at 1 h ([1]; 12 mg strength) of the same compound?
**A.** 249 ng/mL

**Q.** What about the concentration at 2 h ([1]; 12 mg strength) of the same compound?
**A.** 180 ng/mL

**Q.** What about the concentration at 4 h ([1]; 12 mg strength) of the same compound?
**A.** 270 ng/mL

**Q.** And the concentration at 8 h ([1]; 12 mg strength)?
**A.** 329 ng/mL

**Q.** What about the concentration at 24 h ([1]; 12 mg strength) of the same compound?
**A.** 172 ng/mL

**Q.** And the “appearance of drug solution on standing” value ([2]; 16 mg of drug)?
**A.** precipitated out from clear solution after standing

**Q.** And the “appearance of drug solution on standing” value ([2]; other solutions (2, 4, 8, 10, 12 mg))?
**A.** clear and no precipitate was observed

**Q.** And the “concentration at which drug saturation was achieved” value ([2]; propylene glycol, oleyl alcohol, menthol, ethanol, film-forming polymer)?
**A.** about 12 mg per spray
